Assay results as given in patent publication US10150760B2, “Compounds for use in preparing heterocyclic triazole agonists of the APJ receptor” (AMGEN INC., priority 2016, dated 2018).

Molecular target: human APJ receptor (Homo sapiens (Human), UniProt P35414)
Assay: [35S]GTPγS binding assay on membranes from CHO cells stably expressing human APJ receptor
Type: biochemical
Conditions: read-out: Activity hAPJ SPA EC50 IP
How it was run: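 Membranes from CHO cells stably expressing human APJ incubated with ligand, 0.2 nM [35S]GTPγS and WGA SPA beads in HEPES pH 7.5 with 5 mM MgCl2, 200 mM NaCl, 3 μM GDP, 90 min at RT. Nonspecific binding defined with 100 μM GTPγS; EC50 by non-linear regression.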

Chain of human APJ receptor (P35414 whole entry): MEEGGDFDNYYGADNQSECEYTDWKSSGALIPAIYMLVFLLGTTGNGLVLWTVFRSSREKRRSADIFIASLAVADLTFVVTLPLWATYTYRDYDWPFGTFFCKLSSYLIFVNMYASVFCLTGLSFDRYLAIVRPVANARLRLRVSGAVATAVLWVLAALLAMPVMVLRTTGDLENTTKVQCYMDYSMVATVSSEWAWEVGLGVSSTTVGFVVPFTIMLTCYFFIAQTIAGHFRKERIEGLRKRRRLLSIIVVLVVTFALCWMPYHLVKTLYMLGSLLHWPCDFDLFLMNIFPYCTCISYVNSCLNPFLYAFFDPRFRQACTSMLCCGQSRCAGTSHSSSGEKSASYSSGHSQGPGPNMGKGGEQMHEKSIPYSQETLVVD

Row | EC50 [nM] | SMILES
1 | 280 | CO[C@H](c1ncc(Cl)cn1)[C@H](C)S(=O)(=O)Nc1nnc([C@@H]2CC[C@H](C)O2)n1Cc1ccon1 (single isomer, unassigned) [Example 403.0, (1R,2S)-1-(5-chloro-2-pyrimidinyl)-1-methoxy-N-(5-((2S,5S)-5-methyltetrahydro-2-furanyl)-4-(1,2-oxazol-3-ylmethyl)-4H-1,2,4-triazol-3-yl)-2-propanesulfonamide or (1R,2S)-1-(5-chloro-2-pyrimidinyl)-1-methoxy-N-(5-((2R,5R)-5-methyltetrahydro-2-furanyl)-4-(1,2-oxazol-3-ylmethyl)-4H-1,2,4-triazol-3-yl)-2-propanesulfonamide]
2 | 81 | CO[C@H](c1ncc(Cl)cn1)[C@H](C)S(=O)(=O)Nc1nnc([C@@H]2CC[C@H](C)O2)n1Cc1ccon1 (single isomer, unassigned) [Example 404.0, (1R,2S)-1-(5-chloro-2-pyrimidinyl)-1-methoxy-N-(5-((2S,5S)-5-methyltetrahydro-2-furanyl)-4-(1,2-oxazol-3-ylmethyl)-4H-1,2,4-triazol-3-yl)-2-propanesulfonamide or (1R,2S)-1-(5-chloro-2-pyrimidinyl)-1-methoxy-N-(5-((2R,5R)-5-methyltetrahydro-2-furanyl)-4-(1,2-oxazol-3-ylmethyl)-4H-1,2,4-triazol-3-yl)-2-propanesulfonamide]
3 | 1720 | COc1cccc(OC)c1-n1c(NS(=O)(=O)[C@@H](C)[C@H](OC)c2ncc(Cl)cn2)nnc1[C@H]1CCC(=O)N1C (single isomer, unassigned) [Example 405.0, (1R,2S)-1-(5-chloropyrimidin-2-yl)-N-(4-(2,6-dimethoxyphenyl)-5-((R)-1-methyl-5-oxopyrrolidin-2-yl)-4H-1,2,4-triazol-3-yl)-1-methoxypropane-2-sulfonamide or (1R,2S)-1-(5-chloropyrimidin-2-yl)-N-(4-(2,6-dimethoxyphenyl)-5-((S)-1-methyl-5-oxopyrrolidin-2-yl)-4H-1,2,4-triazol-3-yl)-1-methoxypropane-2-sulfonamide]
4 | 1080 | COc1cccc(OC)c1-n1c(NS(=O)(=O)[C@@H](C)[C@H](OC)c2ncc(Cl)cn2)nnc1[C@H]1CCC(=O)N1C (single isomer, unassigned) [Example 406.0, (1R,2S)-1-(5-chloropyrimidin-2-yl)-N-(4-(2,6-dimethoxyphenyl)-5-((R)-1-methyl-5-oxopyrrolidin-2-yl)-4H-1,2,4-triazol-3-yl)-1-methoxypropane-2-sulfonamide or (1R,2S)-1-(5-chloropyrimidin-2-yl)-N-(4-(2,6-dimethoxyphenyl)-5-((S)-1-methyl-5-oxopyrrolidin-2-yl)-4H-1,2,4-triazol-3-yl)-1-methoxypropane-2-sulfonamide]
5 | 64 | COc1cccc(OC)c1-n1c(NS(=O)(=O)[C@@H](C)[C@@H](OC(C)C)c2ccc(C)cn2)nnc1[C@H]1CCOC1 (single isomer, unassigned) [Example 408.0, (1S,2S)-N-(4-(2,6-dimethoxyphenyl)-5-((3R)-tetrahydro-3-furanyl)-4H-1,2,4-triazol-3-yl)-1-(5-methyl-2-pyridinyl)-1-(2-propanyloxy)-2-propanesulfonamide or (1S,2S)-N-(4-(2,6-dimethoxyphenyl)-5-((3S)-tetrahydro-3-furanyl)-4H-1,2,4-triazol-3-yl)-1-(5-methyl-2-pyridinyl)-1-(2-propanyloxy)-2-propanesulfonamide]
6 | 190 | COc1cccc(OC)c1-n1c(NS(=O)(=O)[C@@H](C)[C@@H](OC(C)C)c2ncc(C)cn2)nnc1[C@H]1CCC(=O)N1C (single isomer, unassigned) [Example 417.0, (1S,2S)-N-(4-(2,6-dimethoxyphenyl)-5-((2R)-1-methyl-5-oxo-2-pyrrolidinyl)-4H-1,2,4-triazol-3-yl)-1-(5-methyl-2-pyrimidinyl)-1-(2-propanyloxy)-2-propanesulfonamide or (1S,2S)-N-(4-(2,6-dimethoxyphenyl)-5-((2S)-1-methyl-5-oxo-2-pyrrolidinyl)-4H-1,2,4-triazol-3-yl)-1-(5-methyl-2-pyrimidinyl)-1-(2-propanyloxy)-2-propanesulfonamide]
7 | 350 | COc1cccc(OC)c1-n1c(NS(=O)(=O)[C@@H](C)[C@@H](OC(C)C)c2ncc(C)cn2)nnc1[C@H]1CCC(=O)N1C (single isomer, unassigned) [Example 418.0, (1S,2S)-N-(4-(2,6-dimethoxyphenyl)-5-((2R)-1-methyl-5-oxo-2-pyrrolidinyl)-4H-1,2,4-triazol-3-yl)-1-(5-methyl-2-pyrimidinyl)-1-(2-propanyloxy)-2-propanesulfonamide or (1S,2S)-N-(4-(2,6-dimethoxyphenyl)-5-((2S)-1-methyl-5-oxo-2-pyrrolidinyl)-4H-1,2,4-triazol-3-yl)-1-(5-methyl-2-pyrimidinyl)-1-(2-propanyloxy)-2-propanesulfonamide]

The next lines start with the molecule.

Row | SMILES | EC50 [nM]
8 | COc1cccc(OC)c1-n1c(NS(=O)(=O)[C@@H](C)[C@H](C)c2ccc(Cl)cn2)nnc1C1CCOC1 (single isomer, unassigned) [Example 409.0] | 11
9 | COc1cccc(OC)c1-n1c(NS(=O)(=O)[C@@H](C)[C@H](C)c2ccc(Cl)cn2)nnc1C1CCOC1 (single isomer, unassigned) [Example 410.0] | 19
10 | COc1cccc(OC)c1-n1c(NS(=O)(=O)[C@@H](C)[C@@H](OC(C)C)c2ncc(C)cn2)nnc1[C@@H]1COC(C)(C)C1 (single isomer, unassigned) [Example 411.0, (1S,2S)-N-(4-(2,6-dimethoxyphenyl)-5-((3R)-5,5-dimethyltetrahydro-3-furanyl)-4H-1,2,4-triazol-3-yl)-1-(5-methyl-2-pyrimidinyl)-1-(2-propanyloxy)-2-propanesulfonamide or (1S,2S)-N-(4-(2,6-dimethoxyphenyl)-5-((3S)-5,5-dimethyltetrahydro-3-furanyl)-4H-1,2,4-triazol-3-yl)-1-(5-methyl-2-pyrimidinyl)-1-(2-propanyloxy)-2-propanesulfonamide] | 86
11 | COc1cccc(OC)c1-n1c(NS(=O)(=O)[C@@H](C)[C@@H](OC(C)C)c2ncc(C)cn2)nnc1[C@@H]1COC(C)(C)C1 (single isomer, unassigned) [Example 412.0, (1S,2S)-N-(4-(2,6-dimethoxyphenyl)-5-((3R)-5,5-dimethyltetrahydro-3-furanyl)-4H-1,2,4-triazol-3-yl)-1-(5-methyl-2-pyrimidinyl)-1-(2-propanyloxy)-2-propanesulfonamide or (1S,2S)-N-(4-(2,6-dimethoxyphenyl)-5-((3S)-5,5-dimethyltetrahydro-3-furanyl)-4H-1,2,4-triazol-3-yl)-1-(5-methyl-2-pyrimidinyl)-1-(2-propanyloxy)-2-propanesulfonamide] | 40
12 | COc1cccc(OC)c1-n1c(NS(=O)(=O)[C@@H](C)[C@@H](OC(C)C)c2ncc(Cl)cn2)nnc1[C@H]1CCC(C)(C)O1 (single isomer, unassigned) [Example 413.0, (1S,2S)-1-(5-chloro-2-pyrimidinyl)-N-(4-(2,6-dimethoxyphenyl)-5-((2R)-5,5-dimethyltetrahydro-2-furanyl)-4H-1,2,4-triazol-3-yl)-1-(2-propanyloxy)-2-propanesulfonamide or (1S,2S)-1-(5-chloro-2-pyrimidinyl)-N-(4-(2,6-dimethoxyphenyl)-5-((2S)-5,5-dimethyltetrahydro-2-furanyl)-4H-1,2,4-triazol-3-yl)-1-(2-propanyloxy)-2-propanesulfonamide] | 7.4
13 | COc1cccc(OC)c1-n1c(NS(=O)(=O)[C@@H](C)[C@@H](OC(C)C)c2ncc(Cl)cn2)nnc1[C@H]1CCC(C)(C)O1 (single isomer, unassigned) [Example 414.0, (1S,2S)-1-(5-chloro-2-pyrimidinyl)-N-(4-(2,6-dimethoxyphenyl)-5-((2R)-5,5-dimethyltetrahydro-2-furanyl)-4H-1,2,4-triazol-3-yl)-1-(2-propanyloxy)-2-propanesulfonamide or (1S,2S)-1-(5-chloro-2-pyrimidinyl)-N-(4-(2,6-dimethoxyphenyl)-5-((2S)-5,5-dimethyltetrahydro-2-furanyl)-4H-1,2,4-triazol-3-yl)-1-(2-propanyloxy)-2-propanesulfonamide] | 1.2
14 | C[C@H](c1ncc(Cl)cn1)[C@H](C)S(=O)(=O)Nc1nnc([C@@H]2CCOC2)n1[C@H](C)c1ccon1 (single isomer, unassigned) [Example 415.0, (2S,3R)-3-(5-chloro-2-pyrimidinyl)-N-(4-((1R)-1-(1,2-oxazol-3-yl)ethyl)-5-((3S)-tetrahydro-3-furanyl)-4H-1,2,4-triazol-3-yl)-2-butanesulfonamide or (2S,3R)-3-(5-chloro-2-pyrimidinyl)-N-(4-((1S)-1-(1,2-oxazol-3-yl)ethyl)-5-((3S)-tetrahydro-3-furanyl)-4H-1,2,4-triazol-3-yl)-2-butanesulfonamide] | 230
15 | C[C@H](c1ncc(Cl)cn1)[C@H](C)S(=O)(=O)Nc1nnc([C@@H]2CCOC2)n1[C@H](C)c1ccon1 (single isomer, unassigned) [Example 416.0, (2S,3R)-3-(5-chloro-2-pyrimidinyl)-N-(4-((1R)-1-(1,2-oxazol-3-yl)ethyl)-5-((3S)-tetrahydro-3-furanyl)-4H-1,2,4-triazol-3-yl)-2-butanesulfonamide or (2S,3R)-3-(5-chloro-2-pyrimidinyl)-N-(4-((1S)-1-(1,2-oxazol-3-yl)ethyl)-5-((3S)-tetrahydro-3-furanyl)-4H-1,2,4-triazol-3-yl)-2-butanesulfonamide] | 190
